These results are taken from patent publication US11083195B2, “Insecticidal compositions and methods to kill insects” (priority 2019, dated 2021).

Like-named read-outs stand apart in the source and are kept apart here.

Data set [1] deals with Drosophila suzukii. Format: in vivo. The following applies: vial; for Mortality (%) of flies when fed different sugar formulations: Table 1, first experiment; for Mortality (%) of flies when fed different erythritol and sucralose formulations: Table 2, second experiment; for Statistical comparison of mortalities in words: second experiment, 7 days, log-rank pairwise comparisons (FIG. 3). The method, then: Materials and Methods. Flies and sugars: Drosophila suzukii used in these experiments were from a colony maintained at 22±5° C. under a photoperiod of L:D 16:8 h, and a relative humidity of 60±5% RH at the Horticultural Crops Research Unit, USDA ARS in Corvallis, Oreg. Wildtype flies collected from infested fruits in Corvallis, Oreg. were used to start the colony. Standard rearing methods and diet are described by Woltz, J. M., et al., Journal of Applied Entomology, 139:759-770 (2015). Newly emerged adult males and females were collected daily and maintained in cages with water and diet until they were specific ages for experimentation. Sugars used in this study, meso-erythritol (>99%), sucrose (>99%), and sucralose (>99%), were purchased from Fisher Scientific (Hampton, N.H.).
Different sugar formulations on the fly survivorship: Ten 5-day old flies (5 males and 5 females) were introduced into a plastic vial and given a tube (1.5 ml) containing different water-based solutions. Two combinations of erythritol (Ery) mixed with sucrose (Suc) or sucralose (Sul) were introduced to flies in a plastic vial for 7 days (FIG. 1). For the first experiment various pairs were tested (Table 1): Suc 0.5 M, Ery 0.5 M, Ery 1.5 M+Suc 0.5 M, and Ery 1.5 M+Suc 0.1 M. For the second experiment various pairs were tested (Table 2): Suc 0.5 M, Ery 0.5 M, Sul 0.5 M, Sul 0.1 M, Ery 1.5 M+Sul 0.5 M, Ery 1.5 M+Sul 0.1 M, Ery 2.0 M+Sul 0.1 M, and Ery 2.0 M+Sul 0.01 M. Survivorship of flies was checked daily for 7 days. Each pair per experiment was replicated at least three times.

The subject of data set [2] is Drosophila suzukii. The data set can be described thus: Fly mortality in the cage experiment. The following applies: 7 days (FIG. 7). Format: in vivo. The method, then: Materials and Methods. Flies and sugars: Drosophila suzukii used in these experiments were from a colony maintained at 22±5° C. under a photoperiod of L:D 16:8 h, and a relative humidity of 60±5% RH at the Horticultural Crops Research Unit, USDA ARS in Corvallis, Oreg. Wildtype flies collected from infested fruits in Corvallis, Oreg. were used to start the colony. Standard rearing methods and diet are described by Woltz, J. M., et al., Journal of Applied Entomology, 139:759-770 (2015). Newly emerged adult males and females were collected daily and maintained in cages with water and diet until they were specific ages for experimentation. […] Effect of erythritol formulations with sucrose or sucralose on fly mortality in the cage experiment: Two combinations of erythritol (Ery) mixed with sucrose (Suc) or sucralose (Sul) were introduced to ten flies in a cage (25 cm wide×25 cm deep×28 cm height) for 7 days (FIG. 6). […] The cage experiment shared similar results with both the vial and cup experiments (FIG. 2, FIG. 5, FIG. 7). In summary, the erythritol/sucralose formulation will not affect human health. The erythritol/sucralose formulation can be directly applied as an insecticide for insects such as Drosophila suzukii. […] The formulations can be used as a phagostimulant with conventional or biological insecticides. […]

For the compound `OC[C@H]1O[C@@](CO)(O[C@H]2O[C@H](CO)[C@@H](O)[C@H](O)[C@H]2O)[C@@H](O)[C@@H]1O` [Sucrose (Suc) 0.5M, sucrose], the “Mortality (%) of flies when fed different sugar formulations” value was determined as 1.3% in data set [1] (Day1); 1.3% in data set [1] (Day2); 3.8% in data set [1] (Day3); 5.0% in data set [1] (Day4); 5.0% in data set [1] (Day5); 6.3% in data set [1] (Day6). Moreover, in data set [1] (Day7), the “Mortality (%) of flies when fed different sugar formulations” value is on record as 11.3%. Further, the “Mortality (%) of flies when fed different erythritol and sucralose formulations” value in data set [1] (Day 1) was 0.0%; in data set [1] (Day 2), 2.5%; in data set [1] (Day 3), 2.5%; in data set [1] (Day 4), 2.5%; in data set [1] (Day 5), 5.0%; in data set [1] (Day 6), 5.0%. In data set [1] (Day 7), the “Mortality (%) of flies when fed different erythritol and sucralose formulations” value is recorded as 6.3%.
For the compound `OC[C@@H](O)[C@@H](O)CO` [Erythritol (Ery) 0.5M, meso-erythritol], in data set [2], the “Statistical comparison of results in words” value is “statistically similar”. In data set [1], the “Statistical comparison of mortalities in words” value is listed as “statistically the same values”.
Turning to `OC[C@H]1O[C@H](O[C@]2(CCl)O[C@H](CCl)[C@@H](O)[C@@H]2O)[C@H](O)[C@@H](O)[C@H]1Cl` [Sucralose (Sul) 0.5M, sucralose], in data set [1], the “Statistical comparison of mortalities in words” value was “statistically the same effect”.
Same read-out and setting: in the case of `OC[C@H]1O[C@H](O[C@]2(CCl)O[C@H](CCl)[C@@H](O)[C@@H]2O)[C@H](O)[C@@H](O)[C@H]1Cl` [Sul 0.1M, sucralose] it was “statistically the same effect”.
